Results as given in the supplement of paper PMC13380429.

Tests used:
[1] = system: A549-ACE2 infected with SARS-CoV-2; assay: cell count relative to DMSO; higher = less toxic; conditions: 24 h
Caco-2 [2] = assay: cell viability relative to DMSO; higher = less toxic; conditions: 72 h
Calu-3 [3] = assay: as above; conditions: 72 h
HepG2 [4] = assay: as above; conditions: 72 h
U2OS [5] = assay: as above; conditions: 72 h
Vero E6 [6] = assay: as above; conditions: 72 h
[7] = system: A549-ACE2 infected with SARS-CoV-2; assay: SARS-CoV-2 infection rate relative to DMSO; higher = more infection; conditions: 24 h
A549-ACE2 = assay: drug-induced phospholipidosis relative to tamoxifen; higher = more phospholipidosis
[8] = system: A549-ACE2 infected with SARS-CoV-2; assay: morphology score (similarity to uninfected cells); higher = more like uninfected cells; conditions: 24 h
Calu-3 [9] = assay: relative viability EC50 (midpoint between 100% and the lowest measured viability); higher = less toxic; conditions: 72 h
Vero E6 [10] = assay: as above; conditions: 72 h
Caco-2 [11] = assay: drug sensitivity score (DSS) for viability; higher = more toxic; extreme values may be limits of the assay; conditions: 72 h
Calu-3 [12] = assay: as above; conditions: 72 h
HepG2 [13] = assay: as above; conditions: 72 h
U2OS [14] = assay: as above; conditions: 72 h
Vero E6 [15] = assay: as above; conditions: 72 h
HepG2 [16] = assay: relative viability EC50 (midpoint between 100% and the lowest measured viability); higher = less toxic; conditions: 72 h
Caco-2 [17] = assay: as above; conditions: 72 h
U2OS [18] = assay: as above; conditions: 72 h

CNC(=O)c1ccccc1Sc1ccc2c(/C=C/c3ccccn3)n[nH]c2c1 [axitinib]
Conditions	SARS-CoV-2 infection rate, [7] [%]	cell count, [1] [%]	cell viability, Caco-2 [2] [%]	cell viability, Calu-3 [3] [%]	cell viability, HepG2 [4] [%]	cell viability, U2OS [5] [%]	cell viability, Vero E6 [6] [%]	morphology score, [8]
1 nM	–	–	97.2	108	111	102	114	–
10 nM	–	–	108	102	97.7	104	106	–
100 nM	–	–	92	93.6	108	103	108	–
0.3 µM	92	105	–	–	–	–	–	0.34
1000 nM	–	–	97.8	86.7	92.2	105	101	–
3 µM	98	75	–	–	–	–	–	0.32
10 µM	96	77	–	–	–	–	–	0.35
10000 nM	–	–	72.5	81	71.8	74	94.2	–
30 µM	91	68	–	–	–	–	–	0.49

drug-induced phospholipidosis [%], A549-ACE2
Conditions	0.3 µM	0.833333 µM	3.33333 µM	6.66667 µM	10 µM	30 µM
24 h	2.86	4.48	16.8	10.3	7.44	17.1
48 h	1.43	3.96	7.83	7.9	8.63	15.9
72 h	4.56	4.58	–	–	–	–

Conditions	drug sensitivity score	relative viability EC50 [µM]
Caco-2 [11]	1.5	–
Calu-3 [9]	–	> 10
Calu-3 [12]	1.7	–
HepG2 [13]	2.3	–
U2OS [14]	0.8	–
Vero E6 [10]	–	> 10
Vero E6 [15]	0	–

CC(C)Oc1ccc(-c2nc(-c3cccc4c3CC[C@@H]4NCCO)no2)cc1C#N [ozanimod]
Conditions	SARS-CoV-2 infection rate, [7] [%]	cell count, [1] [%]	cell viability, Caco-2 [2] [%]	cell viability, Calu-3 [3] [%]	cell viability, HepG2 [4] [%]	cell viability, U2OS [5] [%]	cell viability, Vero E6 [6] [%]	morphology score, [8]
1 nM	–	–	95.2	94.5	120	95.2	103	–
10 nM	–	–	75.2	87.2	101	105	96.1	–
0.1 µM	96	104	–	–	–	–	–	0.14
100 nM	–	–	69.7	93.3	106	94.9	102	–
0.3 µM	111	100	–	–	–	–	–	0.03
1 µM	91	100	–	–	–	–	–	0.33
1000 nM	–	–	77.6	96.6	100	97.8	103	–
3 µM	44	114	–	–	–	–	–	0.77
10000 nM	–	–	73	73.1	44.4	72.2	76.7	–

drug-induced phospholipidosis [%], A549-ACE2
Conditions	0.3 µM	0.833333 µM	3.33333 µM	6.66667 µM	10 µM
24 h	6.09	18	72.5	83.5	92.3
48 h	-8.87	1.18	67.1	90.1	96.7
72 h	-6.97	0.974	62.1	108	122

Conditions	drug sensitivity score	relative viability EC50 [µM]
Caco-2 [11]	12.1	–
Calu-3 [12]	1.6	–
HepG2 [13]	3	–
HepG2 [16]	–	3.17
U2OS [14]	1.5	–
Vero E6 [10]	–	> 10
Vero E6 [15]	0.6	–

CN1CCC(=C2c3ccccc3CCc3sccc32)CC1 [pizotifen]
cell viability [%]
Conditions	Caco-2 [2]	Calu-3 [3]	HepG2 [4]	U2OS [5]	Vero E6 [6]
1 nM	97.6	96	96.2	94.6	98.3
10 nM	104	88.7	101	95.6	98.6
100 nM	101	102	99.1	101	97.9
1000 nM	107	91.3	109	94.4	100
10000 nM	99.2	98.2	101	94.6	103

Conditions	drug sensitivity score	relative viability EC50 [µM]
Caco-2 [11]	0	–
Caco-2 [17]	–	> 10
Calu-3 [9]	–	> 10
Calu-3 [12]	0	–
HepG2 [13]	0	–
HepG2 [16]	–	> 10
U2OS [14]	0	–
U2OS [18]	–	> 10
Vero E6 [10]	–	> 10
Vero E6 [15]	0	–

CCCN[C@H]1CCc2nc(N)sc2C1 [pramipexole]
cell viability [%]
Conditions	Caco-2 [2]	Calu-3 [3]	HepG2 [4]	U2OS [5]	Vero E6 [6]
1 nM	97.3	91.7	88.2	96.2	104
10 nM	103	111	90.8	98.2	104
100 nM	99.7	107	109	95.5	105
1000 nM	96.8	102	99.3	98.6	99
10000 nM	107	110	108	103	101

Conditions	drug sensitivity score	relative viability EC50 [µM]
Caco-2 [11]	0	–
Caco-2 [17]	–	> 10
Calu-3 [9]	–	> 10
Calu-3 [12]	0	–
HepG2 [13]	0	–
HepG2 [16]	–	> 10
U2OS [14]	0	–
U2OS [18]	–	> 10
Vero E6 [10]	–	> 10
Vero E6 [15]	0	–

CC(=O)OCC(=O)[C@@]1(O)CC[C@H]2[C@@H]3CCC4=CC(=O)C=C[C@]4(C)[C@H]3[C@@H](O)C[C@@]21C [prednisolone-acetate]
cell viability [%]
Conditions	Caco-2 [2]	Calu-3 [3]	HepG2 [4]	U2OS [5]	Vero E6 [6]
1 nM	110	99.5	107	110	99.5
10 nM	108	92.3	106	106	106
100 nM	93.3	82.6	93.1	100	104
1000 nM	106	87	90.9	101	102
10000 nM	85.8	98.1	114	97.8	94.4

Conditions	drug sensitivity score	relative viability EC50 [µM]
Caco-2 [11]	0.1	–
Caco-2 [17]	–	> 10
Calu-3 [9]	–	> 10
Calu-3 [12]	0	–
HepG2 [13]	0	–
HepG2 [16]	–	> 10
U2OS [14]	0	–
U2OS [18]	–	> 10
Vero E6 [10]	–	> 10
Vero E6 [15]	0	–

C[C@]12C=CC(=O)C=C1CC[C@@H]1[C@@H]2C(=O)C[C@@]2(C)[C@H]1CC[C@]2(O)C(=O)CO [prednisone]
cell viability [%]
Conditions	Caco-2 [2]	Calu-3 [3]	HepG2 [4]	U2OS [5]	Vero E6 [6]
1 nM	95.8	97.8	100	98.9	100
10 nM	99.6	98.1	105	99.2	99.3
100 nM	100	98	98	95.7	104
1000 nM	89.7	106	101	99.6	97.4
10000 nM	85.3	103	90.6	95	94.6

Conditions	drug sensitivity score	relative viability EC50 [µM]
Caco-2 [11]	0.9	–
Caco-2 [17]	–	> 10
Calu-3 [9]	–	> 10
Calu-3 [12]	0	–
HepG2 [13]	0	–
HepG2 [16]	–	> 10
U2OS [14]	0	–
U2OS [18]	–	> 10
Vero E6 [10]	–	> 10
Vero E6 [15]	0	–

CCCOC(=O)c1ccc(O)cc1 [propyl 4-hydroxybenzoate]
cell viability [%]
Conditions	Caco-2 [2]	Calu-3 [3]	HepG2 [4]	U2OS [5]	Vero E6 [6]
1 nM	92.2	92.1	108	102	108
10 nM	100	95.4	102	97.1	95.9
100 nM	102	88.7	107	100	102
1000 nM	90.2	92.1	89	98.9	95.3
10000 nM	109	102	102	102	100

Conditions	drug sensitivity score	relative viability EC50 [µM]
Caco-2 [11]	0	–
Caco-2 [17]	–	> 10
Calu-3 [9]	–	> 10
Calu-3 [12]	0	–
HepG2 [13]	0	–
HepG2 [16]	–	> 10
U2OS [14]	0	–
U2OS [18]	–	> 10
Vero E6 [10]	–	> 10
Vero E6 [15]	0	–

c1ccc2nc(N3CCNCC3)ccc2c1 [quipazine]
cell viability [%]
Conditions	Caco-2 [2]	Calu-3 [3]	HepG2 [4]	U2OS [5]	Vero E6 [6]
1 nM	99	102	93.7	100	90.8
10 nM	98.9	101	97.8	97.4	96.3
100 nM	93.1	109	99.7	102	92.1
1000 nM	95.3	96.1	93.5	100	96.7
10000 nM	106	99.3	101	100	101

Conditions	drug sensitivity score	relative viability EC50 [µM]
Caco-2 [11]	0	–
Caco-2 [17]	–	> 10
Calu-3 [9]	–	> 10
Calu-3 [12]	0	–
HepG2 [13]	0	–
HepG2 [16]	–	> 10
U2OS [14]	0	–
U2OS [18]	–	> 10
Vero E6 [10]	–	> 10
Vero E6 [15]	0	–

Cc1nc(Nc2ccc(F)cc2)nc(N2CCc3ccccc3C2C)c1C (stereo not given) [revaprazan]
Conditions	SARS-CoV-2 infection rate, [7] [%]	cell count, [1] [%]	cell viability, Caco-2 [2] [%]	cell viability, Calu-3 [3] [%]	cell viability, HepG2 [4] [%]	cell viability, U2OS [5] [%]	cell viability, Vero E6 [6] [%]	morphology score, [8]
1 nM	–	–	98.3	97.5	98.2	101	90.2	–
10 nM	–	–	96.7	102	106	100	106	–
100 nM	–	–	104	106	96.3	102	92.7	–
0.3 µM	91	105	–	–	–	–	–	0.16
1000 nM	–	–	97.6	92	110	97.1	98.1	–
3 µM	61	110	–	–	–	–	–	0.59
10 µM	33	115	–	–	–	–	–	0.78
10000 nM	–	–	71.6	99.8	60.4	81.5	95.8	–
30 µM	19	99	–	–	–	–	–	0.77

drug-induced phospholipidosis [%], A549-ACE2
Conditions	0.3 µM	0.833333 µM	3.33333 µM	6.66667 µM	10 µM	30 µM
24 h	0.84	3.77	8.66	7.71	18.8	34.5
48 h	2.14	1.27	2.71	2.07	8.48	17.2
72 h	2.77	-0.285	3.45	3.85	13.8	30.9

Conditions	drug sensitivity score	relative viability EC50 [µM]
Caco-2 [11]	1.6	–
Calu-3 [9]	–	> 10
Calu-3 [12]	0	–
HepG2 [13]	1.5	–
U2OS [14]	0.8	–
U2OS [18]	–	> 10
Vero E6 [10]	–	> 10
Vero E6 [15]	0	–

C[C@H](NCc1ccc(OCc2cccc(F)c2)cc1)C(N)=O [safinamide]
cell viability [%]
Conditions	Caco-2 [2]	Calu-3 [3]	HepG2 [4]	U2OS [5]	Vero E6 [6]
1 nM	97.9	95	98.1	94.2	101
10 nM	97.4	101	92.5	102	89.8
100 nM	101	92.2	98.4	99	99.5
1000 nM	102	102	93.4	105	97.2
10000 nM	100	108	96.6	108	100

Conditions	drug sensitivity score	relative viability EC50 [µM]
Caco-2 [11]	0	–
Caco-2 [17]	–	> 10
Calu-3 [9]	–	> 10
Calu-3 [12]	0	–
HepG2 [13]	0	–
HepG2 [16]	–	> 10
U2OS [14]	0	–
U2OS [18]	–	> 10
Vero E6 [10]	–	> 10
Vero E6 [15]	0	–

O=C(O)Cn1c2c(c3cc(F)ccc31)CN(C(=O)c1cccc3ccccc13)CC2 [setipiprant]
cell viability [%]
Conditions	Caco-2 [2]	Calu-3 [3]	HepG2 [4]	U2OS [5]	Vero E6 [6]
1 nM	91	91.9	98	101	94.2
10 nM	103	115	96.3	105	102
100 nM	103	93.1	108	102	97.3
1000 nM	95	98.7	101	104	99.9
10000 nM	99.1	86.5	102	98.4	102

Conditions	drug sensitivity score	relative viability EC50 [µM]
Caco-2 [11]	0	–
Caco-2 [17]	–	> 10
Calu-3 [9]	–	> 10
Calu-3 [12]	0.2	–
HepG2 [13]	0	–
HepG2 [16]	–	> 10
U2OS [14]	0	–
U2OS [18]	–	> 10
Vero E6 [10]	–	> 10
Vero E6 [15]	0	–
